In article PMC10878532, “Sperm Toolbox—A selection of small molecules to study human spermatozoa” (PLOS ONE, 2024):
Counter-ions that a name gives are not always drawn.

Tests used:
human spermatozoa [1] = test: Acrosome assay, protocol 1 (3h incubation with compound, no agonist; flow cytometry, PNA); format: cell-based; conditions: assay 'Acrosome', incubation_time 3h
Experimental: The acrosome assays utilize a high-throughput flow cytometer (S1 Fig) to score for compounds inducing the acrosome reaction, using peanut agglutinin conjugated to a fluorescent dye to label the outer acrosomal membrane. We have developed two different screening protocols, named ‘acrosome 1’ and ‘acrosome 2’ (S1 Fig). […] This addition allowed measurement of inhibition of acrosome reaction (Fig 2B).
(§1) In both experimental protocols, 20 μL of pooled cells (at 1 M/mL concentration) were capacitated for 3 h in presence of compounds at 37°C and 5% CO2. In protocol a, cells were then stained with PNA-Alexa647 (ThermoFisher, 1 mg/mL, final dilution 1:1000) and Hoechst dye for 30 min at 37°C and 5% CO2, followed by 10 min fixation at RT by adding 20 μL of 4% paraformaldehyde (Sigma) in PBS. In mode b, a cocktail of progesterone, prostaglandin A and NH4Cl was added to all compound wells and incubated for an additional 1 h at 37°C and 5% CO2 to induce acrosome reaction. This was followed by fixation and staining protocol as for mode a. In both protocols fixatives and stains were removed and cells were resuspended in PBS, using a 405 platewasher. Plates were then measured on a Novocyte Advanteon high-throughput flow cytometer. Gating of data has been performed using the flow cytometer software to export counts of gated populations. The Acrosome 1 protocol using 3h incubation with compounds was run in 7 separate donor pools. The Acrosome 2 protocol using 3h incubation with compound followed by 1h stimulation of acrosome reaction was run in 5 separate donor pools.
(§2) For cell painting imaging data, plates of images were imported into OMERO [70]. Cell segmentation and feature extraction were performed using CellProfiler 3 [71] and using instructions from to normalize data. Timelapse data of motility assays was processed as previously described. Acrosome flow cytometry data was processed using NovoCyte Express (PerkinElmer), to gate out background debris, select for single cells and calculate percentage values of acrosome positive events. Sperm viability flow cytometry data was processed using iQue Forecyt (Satorius) to gate out background debris, select for single cells and calculate percentage values of propidium iodide positive events. For all sperm functional assays, data was normalized to DMSO control wells. Each plate had 16 DMSO wells. A median value of all 16 wells was used to calculated percentage change (pct_ch = ((value / DMSO_median) -1) * 100). For sperm viability we calculated fold-change (fc = 1 − (value / DMSO_median)). For each compound we calculated a p-value using a Welch’s t-test implemented in scipy (scipy.stats.ttest_ind) comparing a compounds effect to DMSO controls.

spermatozoa = system: spermatozoa; parameters: method as in per compound as listed in column References of Table 1; conditions: summaries of reported effects; ref per compound as listed in Table 1; cited from earlier work
human spermatozoa [2] = test: Motility assay (non-capacitating conditions); format: cell-based; conditions: cluster in Fig 3A heatmap, 30 μM
Experimental: (§3) To compare the effects of STB compounds on specific sperm functions (e.g. motility, acrosome reaction, viability), we screened them in multiple phenotypic functional assays described below. Each sperm function assay has been repeated in multiple donor pools (see Materials and methods), where each pool consists of cells donated from at least 3 different donors to address donor to donor variability. Each compound has been tested at two concentrations, 10 and 30 μM, and normalized to vehicle controls (DMSO, see Materials and methods). We have modified our assays from the previously published workflow by increasing incubation time and introducing conditions that support capacitation, which is a sperm maturation process required for fertilization. These changes expand the range of targets that we can explore in our assays. Our live-sperm-based high-throughput motility assays use an automated microscope to record short timelapse movies. These assays can be run in different protocols (S1 Fig). […] In this protocol, cells are incubated with compounds for 10 min prior to the first motility read-out. A second and third motility read-out were performed after 3h and 6h incubation. The second protocol, denoted ‘capacitation assay’, utilises conditions that support capacitation (S1 Fig). In this protocol, cells are kept in conditions supporting capacitation for 30 minutes prior to 30 minutes incubation with compound, followed by motility read-out. Both protocols allow sperm motility to be measured (0.5 sec time-lapse movies allow tracking of cells and calculation of sperm kinematics). In addition, the capacitation assay also scores hyperactivation (i.e. distinct movement patterns concomitant with capacitation which are crucial for fertilization) (Fig 2A).
Cells were rested for 1 h post density gradient centrifugation. 10 μL assay buffer was dispensed into assay ready plates, plates were put onto a shaker instrument for 30 seconds using 1,000 rpm, followed by a short pulse centrifugation. Plates were incubated for 15–30 mins at 37°C prior to addition of 10 μL of pooled cells (at 1 M/mL concentration). Plates were then incubated in a Yokogawa CV7000 microscope set at 37°C for 10 min prior to imaging. Imaging a 384-well plate requires ≤ 20 min using the following settings: 2 positions per well, 0.5 sec timelapse movies (3x binning; 11 ms exposure time, 22 ms interval time, […]). A second and a third timepoint was recorded after 3 h, and 6 h incubation at 37°C. Data has been processed as described in [8]. Assay results are from 5 separate donor pools.
as §2

human spermatozoa [3] = test: Authors' own unpublished screening campaigns ('This study'); format: cell-based
From the text: Because there is so little known about the molecular mechanisms that control sperm motility, we are unable to develop hypotheses of potential targets when new hits are identified in the sperm motility assay. However, it is now well-established that features derived from images in phenotypic assays, when compared to phenotypes measured on reference compounds, can accurately stratify genetic or chemical perturbations in phenotypic screens. […] Compound annotations are included in the dataset derived from the STB and indicate that Enzymes/Kinases, Receptors, Channels and Transporters are the most represented target of the STB compound classes (Fig 1D).
List of compounds included in Sperm Toolbox. Published Phenotypes are summaries of reported effects on sperm function related to other processes (e.g. spermatogenesis, liquefaction, or ejaculation).

HeLa = HeLa cell painting cytotoxicity assay; format: cell-based; conditions: 24h compound incubation
Experimental: The HeLa-based assay uses the cell painting assay [11], while the HepG2 assay utilizes a resazurin based viability read-out [64].
Cell were incubated with compounds for 24h.
• 10 μL of MitoTracker (Life Technologies, M22426, 1 mM stock in DMSO as recommended by the vendor) is added to 50 μL of media (1:2000 final dilution) • Phalloidin-Alexa594 (Life Technologies, A12381, 66 μM stock in methanol as recommended by the vendor, 1:500 final dilution) • WGA-Alexa594 (Life Technologies, W11262, 5 mg/mL stock, 1:250 final dilution) was used • DAPI (5 mg/mL stock; 1:1000 final dilution) was used to stain DNA • 20 μL of staining solution was used • PBS was used for washing steps
For cell painting imaging data, plates of images were imported into OMERO [70]. Cell segmentation and feature extraction were performed using CellProfiler 3 [71] and using instructions from [11] to normalize data.

HepG2 = HepG2 cytotoxicity assay (resazurin based); format: cell-based; conditions: 70h incubation
human spermatozoa [4] = test: Acrosome assay, protocol 2 (3h with compound, then 1h agonist cocktail); format: cell-based; conditions: cluster in Fig 3A; 3h with compound then agonist mix
Experimental: The acrosome assays utilize a high-throughput flow cytometer (S1 Fig) to score for compounds inducing the acrosome reaction, using peanut agglutinin conjugated to a fluorescent dye to label the outer acrosomal membrane. We have developed two different screening protocols, named ‘acrosome 1’ and ‘acrosome 2’ (S1 Fig). Both protocols are capable of measuring induction of the acrosome reaction upon compound incubation. However, in the acrosome 2 assay, a mixture of physiological agonists of the acrosome reaction is used after cells have been incubated with compounds for 3h under conditions that support capacitation. This addition allowed measurement of inhibition of acrosome reaction (Fig 2B).
as §1
as §2, with “Sperm viability flow cytometry data was processed using iQue Forecyt (Satorius) to gate out background debris, select for single cells and calculate percentage values of propidium iodide positive events. For all sperm functional assays, data was normalized to DMSO control wells. Each plate had 16 DMSO wells.” left out

human spermatozoa [5] = test: Sperm viability assay (propidium iodide, flow cytometry); format: cell-based; conditions: 3h with compound
Experimental: In this assay, cells are incubated for 3h with compound in non-capacitating media, prior to viability assessment.
Cells were incubated with compounds for a total of 3h at 37°C. 20 min prior, propidium iodide was added (1.5 mM solution, Sigma, final dilution 1:2000). Plates were analysed using a Satorius iQue Screener with settings to allow for a sampling time of ≤30 min per 384-well plate. Gating of data has been performed using the flow cytometer software to export counts of gated populations. This assay was tested in 5 separate donor pools.
as §2

human spermatozoa [6] = test: Capacitation assay (motility and hyperactivation under capacitating conditions); format: cell-based; conditions: cluster in Fig 3A; 30 min capacitation then 30 min with compound
Experimental: as §3
Cells were capacitated for 30 min at 37°C and 5% CO2. 10 μL assay buffer was dispensed into assay ready plates, plates were put onto a shaker instrument for 30 seconds using 1,000 rpm, followed by a short pulse centrifugation. Plates were incubated for 15–30 mins at 37°C and 5% CO2 prior to addition of 10 μL of pooled cells (at 1 M/mL concentration). This was followed by a 20 min compound incubation step at 37°C and 5% CO2. Plates were then incubated in our CV7000 microscope set at 37°C and 5% CO2 for 10 min prior to imaging. […]
For cell painting imaging data, plates of images were imported into OMERO [70]. […] A median value of all 16 wells was used to calculated percentage change (pct_ch = ((value / DMSO_median) -1) * 100). For sperm viability we calculated fold-change (fc = 1 − (value / DMSO_median)). For each compound we calculated a p-value using a Welch’s t-test implemented in scipy (scipy.stats.ttest_ind) comparing a compounds effect to DMSO controls.

[7] = screening_concentration_M 9.99e-6
[8] = screening_concentration_M 2.991e-5

Molecule: N=C(N)Nc1nc2ccccc2[nH]1 [2-Guanidinobenzimidazole]
- ch (percentage change vs DMSO median), Acrosome (human spermatozoa [1]; [7]): 0.2236%
- ch (percentage change vs DMSO median), Acrosome (human spermatozoa [1]; [8]): 0.07571%
- Published Phenotype (spermatozoa): Reduces sperm motility

Molecule: CNc1ccc2oc(C[C@H]3O[C@@]4(CC[C@H]3C)O[C@H]([C@H](C)C(=O)c3ccc[nH]3)[C@H](C)C[C@H]4C)nc2c1C(=O)O [A23187]
- Published Phenotype (spermatozoa): Induces acrosome reaction
- sperm motility and/or acrosome reacted cells (unsupervised clustering) (human spermatozoa [2]): significant reduction of sperm motility and/or increased amounts of acrosome reacted cells

Molecule: NC(=O)Nc1cc(-c2cccc(F)c2)sc1C(=O)N[C@H]1CCCNC1 [AZD 7762 hydrochloride]
- Phenotype observed in own screening campaigns (Published Phenotype, References 'This study') (human spermatozoa [3]): Reduces sperm motility

Molecule: CCCCC(CC)CNC(=N)NC(=N)NCCCCCCNC(=N)NC(=N)NCC(CC)CCCC (stereo not drawn) [Alexidine dihydrochloride]
- Published Phenotype (spermatozoa): Reduces sperm motility
- sperm motility and/or acrosome reacted cells (unsupervised clustering) (human spermatozoa [2]): significant reduction of sperm motility and/or increased amounts of acrosome reacted cells

Molecule: CCOc1ccc(-c2nc(-c3cccc4c3CCC4NCCO)no2)cc1OCC (stereo not drawn) [CYM 5442 hydrchloride]
- Phenotype observed in own screening campaigns (Published Phenotype, References 'This study') (human spermatozoa [3]): Reduces sperm motility; induces acrosome reaction

Molecule: Nc1nc(Cl)nc2c1ncn2[C@@H]1O[C@H](CO)[C@@H](O)[C@@H]1F [Clofarabine]
- general cytotoxicity (HeLa) (HeLa): do not show effects
- general cytotoxicity (HepG2) (HepG2): do not show effects
- acrosome reaction (acrosome reacted cells) (human spermatozoa [4]): significantly increased
- Published Phenotype (spermatozoa): Enhances sperm motility
- effects on sperm viability (human spermatozoa [5]): do not show effects
- hyperactive motility (human spermatozoa [6]): significantly increased

Molecule: Clc1ccc(C(OCCN2CCCCC2)c2ccccc2)cc1 (stereo not drawn) [Cloperastine hydrochloride]
- Phenotype observed in own screening campaigns (Published Phenotype, References 'This study') (human spermatozoa [3]): Reduces sperm motility

Molecule: CCS(=O)(=O)Nc1ccc2c(c1)/C(=C(/Nc1ccc(CN3CCCCC3)cc1)c1ccccc1)C(=O)N2 [Hesperadin hydrochloride]
- Phenotype observed in own screening campaigns (Published Phenotype, References 'This study') (human spermatozoa [3]): Reduces sperm motility

Molecule: C[C@]1(O)C[C@@H](c2nc(-c3ccc4ccc(-c5ccccc5)nc4c3)c3c(N)nccn32)C1 [Linsitinib]
- general cytotoxicity (HeLa) (HeLa): do not show effects
- general cytotoxicity (HepG2) (HepG2): do not show effects
- acrosome reaction (acrosome reacted cells) (human spermatozoa [4]): significantly increased
- Published Phenotype (spermatozoa): enhances sperm motility
- effects on sperm viability (human spermatozoa [5]): do not show effects
- hyperactive motility (human spermatozoa [6]): significantly increased

Molecule: Cc1ccc(S(=O)(=O)c2ccc([N+](=O)[O-])o2)cc1 [NSC 697923]
- Phenotype observed in own screening campaigns (Published Phenotype, References 'This study') (human spermatozoa [3]): Reduces sperm motility

Molecule: [O-][S+](c1ccccc1)c1ccc2nnnn2n1 (stereo not drawn) [Ro 106–9920]
- Phenotype observed in own screening campaigns (Published Phenotype, References 'This study') (human spermatozoa [3]): Reduces sperm motility

Molecule: CCCCCCCCOc1ccc(-c2noc([C@@H]3CCCN3C(=N)N)n2)cc1C(F)(F)F [SLM 6031434 hydrochloride]
- Phenotype observed in own screening campaigns (Published Phenotype, References 'This study') (human spermatozoa [3]): Induces acrosome reaction

Molecule: COc1cc(C)c2c(Oc3cccc(C(F)(F)F)c3)c(OC)cc(NC(C)CCCN)c2n1 (stereo not drawn) [Tafenoquine]
- Phenotype observed in own screening campaigns (Published Phenotype, References 'This study') (human spermatozoa [3]): Reduces sperm motility; induces acrosome reaction
- sperm motility and/or acrosome reacted cells (unsupervised clustering) (human spermatozoa [2]): significant reduction of sperm motility and/or increased amounts of acrosome reacted cells

Molecule: O=C(N1CCCCC1)N1CCCCC1Cc1ccccc1 (stereo not drawn) [compound 183]
- ch (percentage change vs DMSO median), Acrosome (human spermatozoa [1]; [7]): 0.955%
- ch (percentage change vs DMSO median), Acrosome (human spermatozoa [1]; [8]): 1.376%
- Published Phenotype (spermatozoa): Reduces acrosome reaction

Molecule: NVP-AEW541
- Published Phenotype (spermatozoa): Inhibition of hyperactivity

B1: Urinastatin (protein, UniProt P02760 206-352, looked up)
Inter-alpha-trypsin inhibitor …: AVLPQEEEGSGGGQLVTEVTKKEDSCQLGYSAGPCMGMTSRYFYNGTSMACETFQYGGCMGNGNNFVTEKECLQTCRTVAACNLPIVRGPCRAFIQLWAFDAVKGKCVLFPYGGCQGNGNKFYSEKECREYCGVPGDGDEELLRFSN
modifications: Inter-alpha-trypsin inhibitor light chain
notes: interferes with liquefaction
- Published Phenotype (spermatozoa): Interferes with liquefaction; reduces sperm motility
